pEC50: −log10 of the molar value. Where “and” joins values, the source holds several entries; their conditions need not be identical. Equal values may be shown once. Read-outs that look alike come from different tables or passages of the source.
Experiments:
[1] = test system: A/Switzerland/971593/2013 (H3N2); experiment: microbe, parasite or virus in culture; format: cell-based; details: Influenza A virus, H3N2, MDCK
[2] = test system: A/Hong Kong/4801/2014 (H3N2); experiment: microbe, parasite or virus in culture; format: cell-based; details: Influenza A virus, H3N2, MDCK
[3] = test system: A/Puerto Rico/8/1934 (H1N1); design: species or system BALB/c mice; details: mouse, in vivo
[4] = test system: A/Weiss/1943 (H1N1); experiment: microbe, parasite or virus in culture; format: cell-based, Influenza A virus
[5] = test system: A/Vietnam/1203/2004 (H5N1); experiment: microbe, parasite or virus in culture; format: cell-based; details: Influenza A virus, H5N1, MDCK
[6] = test system: A/Perth/16/2009 (H3N2); experiment: microbe, parasite or virus in culture; format: cell-based; details: Influenza A virus, H3N2, MDCK
[7] = test system: B/Lee/1940; experiment: microbe, parasite or virus in culture; format: cell-based; details: Influenza B virus, MDCK
[8] = test system: IAV H1N1 and H3N2 isolates; experiment: microbe, parasite or virus in culture; format: cell-based, Influenza A virus
[9] = test system: A/California/2/2014 (H3N2); experiment: microbe, parasite or virus in culture; format: cell-based; details: Influenza A virus, H3N2, MDCK
[10] = test system: HPAI H5N1 and H7N9 isolates; experiment: microbe, parasite or virus in culture; format: cell-based; details: Influenza A virus, MDCK, read-out: EC50 values, range over isolates
[11] = test system: A/California/07/2009 (H1N1); experiment: microbe, parasite or virus in culture; format: cell-based; details: Influenza A virus, H1N1, MDCK
[12] = test system: A/Hong Kong/213/2003 (H5N1); experiment: microbe, parasite or virus in culture; format: cell-based; details: Influenza A virus, H5N1, MDCK
[13] = test system: A/Anhui/1/2013 (H7N9); experiment: microbe, parasite or virus in culture; format: cell-based; details: Influenza A virus, H7N9, MDCK
[14] = test system: A/Taiwan/1/2017 (H7N9); experiment: microbe, parasite or virus in culture; format: cell-based; details: Influenza A virus, H7N9, MDCK
[15] = test system: A/Kansas/14/2017 (H3N2); experiment: microbe, parasite or virus in culture; format: cell-based; details: Influenza A virus, H3N2, MDCK
[16] = test system: A/Puerto Rico/8/1934 (H1N1); experiment: microbe, parasite or virus in culture; format: cell-based, Influenza A virus
[17] = test system: A/New York/18/2009 (H1N1); experiment: microbe, parasite or virus in culture; format: cell-based; details: Influenza A virus, H1N1, MDCK
[18] = in vitro; details: human
[19] = test system: A/Mexico/4108/2009 (H1N1); experiment: microbe, parasite or virus in culture; format: cell-based; details: Influenza A virus, H1N1, MDCK
[20] = test system: A/Brisbane/05/2018 (H1N1); experiment: microbe, parasite or virus in culture; format: cell-based; details: Influenza A virus, H1N1, MDCK
[21] = in vitro; details: dog
[22] = test system: HepG2 cells; details: human
[23] = test system: A/cattle/Texas/56283/2024 (H5N1); experiment: microbe, parasite or virus in culture; format: cell-based; details: Influenza A virus, H5N1, MDCK
[24] = test system: B/Florida/78/2015; experiment: microbe, parasite or virus in culture; format: cell-based; details: Influenza B virus, MDCK
[25] = cited from earlier work
[26] = mouse, in vivo; cited from earlier work
[27] = test system: A/Wilson-Smith/1933 (H1N1); experiment: microbe, parasite or virus in culture; format: cell-based; details: Influenza A virus, H1N1, MDCK
[28] = Balb/c, mouse, in vivo
[29] = test system: A549 cells; details: human
[30] = test system: A/Hong Kong/8/1968 (H3N2); experiment: microbe, parasite or virus in culture; format: cell-based, Influenza A virus
[31] = test system: A/Malaya/302/1954 (H1N1); experiment: microbe, parasite or virus in culture; format: cell-based, Influenza A virus
[32] = test system: A/Puerto Rico/8/1934 (H1N1); details: mouse, in vivo; cited from earlier work
[33] = test system: A/WSN/1933 (H1N1); experiment: microbe, parasite or virus in culture; format: cell-based; details: Influenza A virus, MDCK
[34] = test system: A/Michigan/45/2015 (H1N1); experiment: microbe, parasite or virus in culture; format: cell-based; details: Influenza A virus, H1N1, MDCK
[35] = test system: A/Puerto Rico/8/1934 (H1N1); design: species or system BALB/c mice; details: mouse, in vivo; remark: listed apart in the source

COC[C@@]1(C)COC[C@@H](COc2ccc(-c3cc(C(N)=O)c(O)nc3C(F)(F)F)cc2)O1 [VNT-101]
pEC50 [1]: 8.66 | EC90 [1]: 3.32 nM | pEC50 [2]: 8.59 | EC90 [2]: 3.71 nM | final mean body weight loss [3]: 21.1% | maximum mean body weight loss [3]: 24.4% | maximum mean body weight loss ([3]; 30 mg/kg): 13.6% and 25.1% | Survival ([3]; po, 100 mg/kg): 33% | pEC50 [4]: 6.91 | pEC50 ([4]; Influenza A virus, H1N1, MDCK): 6.91 | EC90 ([4]; Influenza A virus, H1N1, MDCK): 210 nM | pEC50 [5]: 7.60 | pEC50 [6]: 8.39 | EC90 [6]: 5.68 nM | pEC50 [7]: < 4.32 | EC90 [7]: > 50000 nM | pEC50 ([8]; Influenza A virus, MDCK, read-out: mean EC50 values, range over isolates): 7.74 to 8.70 | pEC50 [9]: 8.66 | EC90 [9]: 3.41 nM | pEC50 [10]: 7.16 to 7.72 | pEC50 [11]: 8.08 | EC90 [11]: 19.2 nM | pEC50 [12]: 7.72 | pEC50 [13]: 7.62 | pEC50 [14]: 7.16 | pEC50 [15]: 8.50 | EC90 [15]: 18 nM | pEC50 [16]: 8.68 and 8.70 | pEC50 ([16]; Influenza A virus, H1N1, MDCK): 8.68 | EC90 ([16]; Influenza A virus, H1N1, MDCK): 3.22 nM | pEC50 ([16]; Influenza A virus, H1N1, MDCK, read-out: mean EC50): 8.30 | pEC50 [17]: 8.73 | EC90 [17]: 5.12 nM | CC50 ([18]; Proliferating condition CC50): 72800 nM | CC50 ([18]; Stationary condition CC50 (mean)): > 80400 nM | CC50 ([18]; Stationary condition CC50, individual runs): > 100000 nM | pEC50 [19]: 7.84 | EC90 [19]: 112 nM | pEC50 [20]: 8.18 | EC90 [20]: 11.2 nM | CC50 [21]: > 100000 nM | CC50 [22]: > 100000 nM | pEC50 [23]: 7.19 | pEC50 [24]: 4.36 | EC90 [24]: > 50000 nM | percent plasma protein binding [25]: 97.1% | Cmin [26]: 3.49 ± 1.35 µM | pEC50 [27]: 7.58 | EC90 [27]: 50.6 nM | fAUC [28]: 3.045 µM·h | fCmin [28]: 0.10 µM | CC50 [29]: > 100000 nM | pEC50 ([30]; Influenza A virus, H3N2, MDCK): < 4.30 | EC90 ([30]; Influenza A virus, H3N2, MDCK): > 50000 nM | pEC50 ([30]; read-out: EC50): < 4.30 | pEC50 ([31]; Influenza A virus, H1N1, MDCK): < 4.30 | EC90 ([31]; Influenza A virus, H1N1, MDCK): > 50000 nM | protection from lethality, prophylaxis [32]: protected mice from lethality | pEC50 [33]: 6.94 | EC90 [33]: 191 nM | pEC50 [34]: 7.75 | EC90 [34]: 29.4 nM

CCOC(=O)C1=C[C@@H](OC(CC)CC)[C@H](NC(C)=O)[C@@H](N)C1 [Oseltamivir, oseltamivir, reference compound]
body weight loss leading to euthanasia [3]: > 25% | pEC50 ([4]; Influenza A virus, H1N1, MDCK): 5.98 | shift in EC50 values relative to reference strain [8]: < 2 fold | pEC50 ([16]; Influenza A virus, H1N1, MDCK): 6.01 | Lung viral load [35]: comparable to the vehicle control | Fold shift [30]: 0.09 | pEC50 ([30]; read-out: EC50): 7.05 | Fold shift [31]: 1.19

O=C1c2c(O)c(=O)ccn2N([C@@H]2c3ccccc3SCc3c2ccc(F)c3F)[C@@H]2COCCN12 [Baloxavir, baloxavir, reference compound]
pEC50 ([4]; Influenza A virus, H1N1, MDCK): 9.40 | pEC50 ([16]; Influenza A virus, H1N1, MDCK): 9.24 | pEC50 ([30]; read-out: EC50): 9.17
